Assay results taken from patent publication US8158165B2, “Preventative treatment and remission of allergic diseases” (CSIR, priority 2006, dated 2012).
Converted amounts (≈) assume the structure as drawn.

Assays:
[1] = target: T1, human glucocorticoid receptors (Homo sapiens, UniProt P04150); experiment: glucocorticoid receptor (GR) binding assay, [3H]Dexamethasone, HeLa S3 cells
T1 construct: endogenous in cells; host or cells: HeLa S3 (human cervix carcinoma) cells
T1 sequence (P04150 1-777): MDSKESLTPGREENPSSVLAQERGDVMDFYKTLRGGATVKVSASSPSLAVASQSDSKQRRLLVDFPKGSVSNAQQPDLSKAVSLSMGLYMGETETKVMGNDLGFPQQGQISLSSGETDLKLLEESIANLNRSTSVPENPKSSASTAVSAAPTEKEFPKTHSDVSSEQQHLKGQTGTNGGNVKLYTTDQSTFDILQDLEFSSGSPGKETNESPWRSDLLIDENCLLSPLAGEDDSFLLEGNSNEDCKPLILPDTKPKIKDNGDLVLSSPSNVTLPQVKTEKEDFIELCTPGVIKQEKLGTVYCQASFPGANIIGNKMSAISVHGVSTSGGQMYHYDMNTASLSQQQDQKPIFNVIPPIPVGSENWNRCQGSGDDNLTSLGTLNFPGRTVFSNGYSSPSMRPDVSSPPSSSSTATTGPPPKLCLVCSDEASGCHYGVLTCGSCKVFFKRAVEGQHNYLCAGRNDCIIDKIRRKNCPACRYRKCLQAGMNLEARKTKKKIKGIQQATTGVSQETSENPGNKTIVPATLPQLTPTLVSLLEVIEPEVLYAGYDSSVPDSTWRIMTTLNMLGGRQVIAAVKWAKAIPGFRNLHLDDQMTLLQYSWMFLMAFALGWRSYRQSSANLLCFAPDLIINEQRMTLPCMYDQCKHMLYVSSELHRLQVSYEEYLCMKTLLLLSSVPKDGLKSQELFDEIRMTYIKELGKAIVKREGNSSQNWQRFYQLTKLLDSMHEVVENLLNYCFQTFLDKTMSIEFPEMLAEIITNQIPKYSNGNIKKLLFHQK
Excerpt: Biochemical assay results as presented herein are reflected as the percent inhibition of specific binding or activity of a compound. The assay is described in Cidlowski, J. A. and Cidlowski, N. B., Regulation of glucocorticoid receptors by glucocorticoids in cultured HeLa S3 cells. Endocrinology 109: 1975-1982, 1981, the contents of which are incorporated herein by way of reference. This assay specifically measures the ability of active glucocorticoids in glucocorticoid receptor downregulation.
This assay measures binding of [^3H]Dexamethasone to human glucocorticoid receptors. HeLa S3 cells are suspended in modified HEPES buffer, pH 7.2, using standard techniques.
The cells (1×10^6) are incubated with 6 nM [^3H]Dexamethasone for 120 minutes at 25° C. Non-specific binding is estimated in the presence of 20 μM Dexamethasone. Membranes are filtered and washed three times and the filters are counted to determine [^3H]Dexamethasone specifically bound. Compounds are screened at 10 μM for activity.

[2] = tested on: NF-κB transcription factor; experiment: Transcription Response, NF-κB (Jurkat lacZ reporter); format: cell-based, human
Excerpt: The assay is described in Lenardo M J, Baltimaore D. Lenardo M J, Baltimaore D, NF-κB: A pleiotropic mediator of inducible and tissue specific gene control. Cell. 58: 227-229, 1989, the contents of which are incorporated herein by way of reference.
Human T lymphocytic Jurkat cells, transfected with a response element-lacZ reporter in which transcription of the β-galactosidase gene is directed by the binding site for the NF-κB transcription factor, are used. Test compound and/or vehicle are incubated with the cells (1.5×10^6/ml) in the presence of 0.5 μM A23187 and 50 ng/ml PMA (phorbol 12-myristate 13-acetate) in RPMI-1640 pH 7.4 at 37° C. for 4 hours. Test compound-induced β-galactosidase activity is determined by the conversion of FDG (fluorescein di-β-D-galactopyranoside) to fluorescein. Fluorescence intensity is read on SpectroFluor Plus plate reader. […]

Phosphodiesterase PDE4 = experiment: phosphodiesterase PDE4 enzyme assay; format: biochemical, human; details: 100 μg/ml
Method: Based on the results shown in Table 6, it follows that the combined fraction (WG-I-5AB+WG-I-5C) is effective in binding to the glucocorticoid receptor (GR) site. […] This inhibitory effect implies that the combined fraction (WG-I-5AB+WG-I-5C) has a bronchodilatory effect. For the PDE4 test, PDE4 which has been partially purified from human U-937 pronocytic cells is used. The test compound and/or vehicle is incubated with 0.2 μg enzyme and 1 μM cAMP containing 0.01 μM [^3H]cAMP in Tris buffer pH 7.5 for 20 minutes at 30° C. The reaction is terminated by boiling for 2 minutes and the resulting AMP is converted to adenosine by addition of 10 mg/ml snake venom necleotidase and further incubation at 30° C. for 10 minutes. Unhydrolyzed cAMP is bound to AGI-X2 resin, and remaining [^3H]adenosine in the aqueous phase is quantified by scintillation counting. Compounds are screened at 100 μM. IBMX (3-isobutyl-1-methylxanthine) is used as standard reference agent.

IL-5 = experiment: Mediator Release, IL-5 (ConA-stimulated PBMNL cells); format: cell-based, human
Method: As regards the human IL-5 mediator release text, the test compound is incubated with Concanavalin A (ConA) (10 μg/ml)-stimulated human peripheral blood mononuclear leukocyte (PBMNL) cells in growth medium RPMI-1640 (pH 7.4) overnight at 37° C. in an incubator. The IL-5 cytokine production levels in the conditioned medium are quantified using a sandwich ELISA kit. […] These same concentrations are concurrently applied to a separate group of treated cells and evaluated for possible compound-induced cytotoxicity only if significant inhibition of release is observed. Dexamethasone is used as standard reference agent.

Cc1coc2c1C[C@H]1[C@H](C)C=CC(=O)[C@]1(C)C2 (relative stereo) [compound 1, 4,4a,5,9-tetrahydro-3,5,8a-trimethylnaptho[2,3-b]furan-8-one]
IC50 [1]: 50.3 µM
Ki [1]: 22.8 µM
inhibition at 100 µM ([1]; 100 μM): 70%
inhibition at 100 µg/mL ([1]; 100 μg/ml): 104%
nH Glucocorticoid ([1]; Hill coefficient): 1.4
% RESPONSE Ant, Transcription Response, NF-κB ([2]; 0.1 μM): 0%
% RESPONSE Ant, Transcription Response, NF-κB ([2]; 1 μM): 7%
% RESPONSE Ant, Transcription Response, NF-κB ([2]; 10 μM): 27%
% RESPONSE Ant, Transcription Response, NF-κB ([2]; 10 μM, fifth (last) step of the series): 5%
% RESPONSE Ant, Transcription Response, NF-κB ([2]; 100 μM): 113%
% RESPONSE Ant, Transcription Response, NF-κB ([2]; 100 μM, listed as compound of formula 1): > 100%
IC50 ([2]; Homo sapiens, Jurkat, read-out: IC50 inhibition of NF-κB transcription factor): 15.6 µg/mL (≈ 67.7 µM)
Inhibition (%) Phosphodiesterase PDE4 (Phosphodiesterase PDE4): 35%
ANT. Mediator Release, IL-5 (IL-5; 10 nM): 17%
ANT. Mediator Release, IL-5 (IL-5; 0.1 μM): 18%
ANT. Mediator Release, IL-5 (IL-5; 1 μM): 25%
ANT. Mediator Release, IL-5 (IL-5; 10 μM): 36%
ANT. Mediator Release, IL-5 (IL-5; 100 μM): 93%
ANT. Mediator Release, IL-5 (IL-5; 100 μg/ml (Table 13)): 93%
EC50 (IL-5; Homo sapiens): 16.1 µM
IC50 (IL-5; Homo sapiens, as worded, read-out: IC50 mediator release Interleukin-5 (IL-5) inhibition assay): 16.1 µM
